Data published in patent publication US20180000085A1, “USE OF PICOLINAMIDE COMPOUNDS WITH FUNGICIDAL ACTIVITY” (DOW AGROSCIENCES LLC, priority 2014, published 2018).

What was measured:
[1] = test system: Puccinia triticina; experiment: Wheat brown rust (PUCCRT) disease control on wheat seedlings; type: in vivo; conditions: for PUCCRT 1DP, LV activity at 125.1 g/H (% Control rating) / PUCCRT 3DC, LV activity at 125.1 g/H (% Control rating) / PUCCRT 1DP disease control rating, LV activity at 125.1 g/H / PUCCRT 3DC disease control rating, LV activity at 125.1 g/H: low volume application; for PUCCRT 1DP disease control rating, LV activity at 125.1 g/H / PUCCRT 1DP disease control rating, HV activity at 100 ppm: 1 day protectant; for PUCCRT 3DC disease control rating, LV activity at 125.1 g/H / PUCCRT 3DC disease control rating, HV activity at 100 ppm: 3 day curative; for PUCCRT 1DP disease control rating, HV activity at 100 ppm / PUCCRT 3DC disease control rating, HV activity at 100 ppm: high volume application
[2] = test system: Zymoseptoria tritici; experiment: Leaf blotch of wheat (SEPTTR) disease control on wheat seedlings; type: in vivo; parameters: key to SEPTTR 1DP, HV activity at 100 ppm (% control rating) / SEPTTR 3DC, HV activity at 100 ppm (% control rating) / SEPTTR disease control, 1DP / SEPTTR disease control, 3DC / SEPTTR 1DP disease control rating, HV activity / SEPTTR 3DC disease control rating, HV activity / SEPTTR 3DC, LV activity at 125.1 g/H (% Control rating) / SEPTTR 1DP, LV activity at 125.1 g/H (% Control rating) / SEPTTR 1DP disease control rating, LV activity at 125.1 g/H / SEPTTR 3DC disease control rating, LV activity at 125.1 g/H / SEPTTR 3DC disease control rating, HV activity at 100 ppm / SEPTTR 1DP disease control rating, HV activity at 100 ppm / HV activity at 100 ppm SEPTTR 3DC (disease control rating) / HV activity at 100 ppm SEPTTR 1DP (disease control rating) / LV activity at 125.1 g/H SEPTTR 1DP (disease control rating) / LV activity at 125.1 g/H SEPTTR 3DC (disease control rating): A: > 80; B: ≤ 80; C: Not Tested; D: No Activity Observed in the Reported Assay; conditions: for SEPTTR 1DP, LV activity at 125.1 g/H (% Control rating) / SEPTTR 3DC, LV activity at 125.1 g/H (% Control rating) / SEPTTR 1DP disease control rating, LV activity at 125.1 g/H / SEPTTR 3DC disease control rating, LV activity at 125.1 g/H: low volume application; for SEPTTR 1DP disease control rating, LV activity at 125.1 g/H / SEPTTR 1DP disease control rating, HV activity at 100 ppm: 1 day protectant; for SEPTTR 3DC disease control rating, LV activity at 125.1 g/H / SEPTTR 3DC disease control rating, HV activity at 100 ppm: 3 day curative; for SEPTTR 1DP disease control rating, HV activity at 100 ppm / SEPTTR 3DC disease control rating, HV activity at 100 ppm: high volume application

COc1ccnc(C(=O)NC(C)C(=O)OC(C)COCC2CC2)c1OCOC(C)=O (stereo not drawn) [Cmpd 527]
PUCCRT 1DP, LV activity at 125.1 g/H (% Control rating) ([1]; 1 Day Protectant): B (≤ 80) | PUCCRT 3DC, LV activity at 125.1 g/H (% Control rating) ([1]; 3 Day Curative): B (≤ 80) | SEPTTR 1DP, LV activity at 125.1 g/H (% Control rating) ([2]; 1 Day Protectant): D | SEPTTR 3DC, LV activity at 125.1 g/H (% Control rating) ([2]; 3 Day Curative): A (> 80)

C=CC(OCCC)C(Oc1ccccc1)C(C)OC(=O)C(C)NC(=O)c1nccc(OC)c1OC(C)=O (stereo not drawn) [Cmpd 456]
PUCCRT 1DP disease control rating, HV activity ([1]; HV application at 100 ppm, 1 Day Protectant, wheat brown rust): A (> 80) | PUCCRT 3DC disease control rating, HV activity ([1]; HV application at 100 ppm, 3 Day Curative, wheat brown rust): A (> 80) | PUCCRT 1DP disease control rating, LV activity ([1]; Low volume application at 125.1 g/H, 1 Day Protectant, wheat brown rust): A (> 80) | PUCCRT 3DC disease control rating, LV activity ([1]; Low volume application at 125.1 g/H, 3 Day Curative, wheat brown rust): A (> 80) | SEPTTR 1DP disease control rating, HV activity ([2]; HV application at 100 ppm, 1 Day Protectant, wheat leaf blotch): A (> 80) | SEPTTR 3DC disease control rating, HV activity ([2]; HV application at 100 ppm, 3 Day Curative, wheat leaf blotch): A (> 80) | SEPTTR 1DP disease control rating, LV activity ([2]; Low volume application at 125.1 g/H, 1 Day Protectant, wheat leaf blotch): A (> 80) | SEPTTR 3DC disease control rating, LV activity ([2]; Low volume application at 125.1 g/H, 3 Day Curative, wheat leaf blotch): A (> 80)

CCCO[C@@H](c1ccccc1)[C@H](C)OC(=O)[C@H](C)NC(=O)c1nccc(OC)c1OC(C)=O [Cmpd 883]
PUCCRT 1DP disease control rating, LV activity at 125.1 g/H [1]: A (> 80) | PUCCRT 3DC disease control rating, LV activity at 125.1 g/H [1]: A (> 80) | SEPTTR 1DP disease control rating, LV activity at 125.1 g/H [2]: B (≤ 80) | SEPTTR 3DC disease control rating, LV activity at 125.1 g/H [2]: A (> 80)

CCC[C@@H](Oc1cccc(OC)c1)[C@H](C)OC(=O)[C@H](C)NC(=O)c1nccc(OC)c1O [Cmpd 1013]
PUCCRT 1DP disease control rating, HV activity at 100 ppm ([1]; 100 ppm): A (> 80) | PUCCRT 3DC disease control rating, HV activity at 100 ppm ([1]; 100 ppm): A (> 80) | SEPTTR 1DP disease control rating, HV activity at 100 ppm ([2]; 100 ppm): B (≤ 80) | SEPTTR 3DC disease control rating, HV activity at 100 ppm ([2]; 100 ppm): B (≤ 80)

COc1ccnc(C(=O)N[C@@H](C)C(=O)O[C@@H](C)[C@@H](CC(C)C)Oc2ccc(C)cc2Cl)c1O [Cmpd 1051]
HV activity at 100 ppm PUCCRT 1DP (disease control rating) ([1]; HV application, 100 ppm, 1 Day Protectant, wheat brown rust): A (> 80) | HV activity at 100 ppm PUCCRT 3DC (disease control rating) ([1]; HV application, 100 ppm, 3 Day Curative, wheat brown rust): B (≤ 80) | HV activity at 100 ppm SEPTTR 1DP (disease control rating) ([2]; HV application, 100 ppm, 1 Day Protectant, wheat leaf blotch): B (≤ 80) | HV activity at 100 ppm SEPTTR 3DC (disease control rating) ([2]; HV application, 100 ppm, 3 Day Curative, wheat leaf blotch): D

COc1ccnc(C(=O)NC(C)C(=O)OC(C)C(Oc2ccccc2)c2ccccc2)c1OC(C)=O (stereo not drawn) [Cmpd 870]
PUCCRT 1DP disease control rating, LV activity at 125.1 g/H [1]: A (> 80) | PUCCRT 3DC disease control rating, LV activity at 125.1 g/H [1]: B (≤ 80) | SEPTTR 1DP disease control rating, LV activity at 125.1 g/H [2]: A (> 80) | SEPTTR 3DC disease control rating, LV activity at 125.1 g/H [2]: A (> 80)

COc1ccnc(C(=O)N[C@@H](C)C(=O)O[C@@H](C)[C@H](Oc2ccc(C)cc2)C2CCCC2)c1O [Cmpd 846, (S)-(1R,2S)-1-cyclopentyl-1-(p-tolyloxy)propan-2-yl-2-(3-hydroxy-4-methoxypicolinamido)propanoate]
PUCCRT 1DP disease control rating, HV activity at 100 ppm ([1]; 100 ppm): A (> 80) | PUCCRT 3DC disease control rating, HV activity at 100 ppm ([1]; 100 ppm): A (> 80) | SEPTTR 1DP disease control rating, HV activity at 100 ppm ([2]; 100 ppm): B (≤ 80) | SEPTTR 3DC disease control rating, HV activity at 100 ppm ([2]; 100 ppm): B (≤ 80)

CC[C@H](Cc1ccc(OC)cc1)[C@@H](Oc1ccccc1)[C@H](C)OC(=O)[C@H](C)NC(=O)c1nccc(OC)c1OC(=O)C(C)C [Cmpd 472]
PUCCRT 1DP, LV activity at 125.1 g/H (% Control rating) ([1]; 1 Day Protectant): A (> 80) | PUCCRT 3DC, LV activity at 125.1 g/H (% Control rating) ([1]; 3 Day Curative): B (≤ 80) | SEPTTR 1DP, LV activity at 125.1 g/H (% Control rating) ([2]; 1 Day Protectant): A (> 80) | SEPTTR 3DC, LV activity at 125.1 g/H (% Control rating) ([2]; 3 Day Curative): A (> 80)
